This is an account of results in publication PMC9562341, “AI protein structure prediction-based modeling and mutagenesis of a protostome receptor and peptide ligands reveal key residues for their interaction” (The Journal of Biological Chemistry, 2022).

Common to all, as to format: cell-based
In test [1] the target is T1, ALKR (Aplysia leucokinin-like peptide receptor) (Aplysia californica, UniProt A0A977Q7Q2).
T1 sequence (A0A977Q7Q2 1-429): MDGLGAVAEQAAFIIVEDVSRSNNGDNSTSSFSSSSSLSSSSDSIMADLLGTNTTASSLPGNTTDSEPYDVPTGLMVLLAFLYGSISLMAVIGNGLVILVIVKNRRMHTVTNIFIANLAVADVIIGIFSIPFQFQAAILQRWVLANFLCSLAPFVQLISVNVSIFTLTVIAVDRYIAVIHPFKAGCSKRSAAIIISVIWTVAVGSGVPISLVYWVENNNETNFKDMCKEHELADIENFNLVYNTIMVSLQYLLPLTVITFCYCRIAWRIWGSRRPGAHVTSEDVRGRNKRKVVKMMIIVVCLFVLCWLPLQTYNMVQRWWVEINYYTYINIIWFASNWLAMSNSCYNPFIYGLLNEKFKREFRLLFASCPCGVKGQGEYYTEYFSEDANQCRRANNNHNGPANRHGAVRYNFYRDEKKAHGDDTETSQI
The test is described as follows: IP1 accumulation assay, CHO-K1 cells transfected with ALKR. The text has this: To examine whether the native ALKs could activate the putative ALKR, we expressed the ALKR in Chinese hamster ovary K1 (CHO-K1) cells and examined ALK-mediated changes in the concentration of inositol monophosphate (IP1), a degradation product of the second messenger (inositol trisphosphate) in the Gq signaling pathway upon ligand-induced activation ([88]) (Figs. 4 and S5). […] All endogenous ALK peptides could activate ALKR in a dose-dependent manner (Fig. 4, A–C). […] The lowest EC50 values were for ALK8 (EC50 = 10 nM) and ALK9 (EC50 = 10 nM). The EC50 values for ALK1, ALK2, ALK3, ALK4, ALK5, ALK10, ALK13 were slightly higher than that of ALK9, but there was no statistically significant difference between them (Table S5).
(§1) IP1 accumulation assay measures concentration of IP1 ([88]), that is hydrolyzed from the second messenger, inositol trisphosphate, generated by Gαq pathway when GPCR expressed in CHO-K1 cells is activated by an appropriate ligand. We note two reasons that we selected mammalian CHO-K1 cells for assays for ligand-receptor (GPCR) activity: (1) there are no established molluscan cell lines available; (2) CHO-K1 cells have been extensively utilized not only for vertebrate GPCRs (e.g., ([97])) but also for invertebrate/protostome GPCRs, including other molluscs ([9], [11], [73]), annelids ([8]), jellyfish ([98]), Caenorrhabditis elegans ([99]), and arthropods ([76], [78], [79], [80]). Given that LKRs are only present in protostomes ([6], [7], [66], [67]), an additional advantage of using mammalian cells to assay ligand-receptor activity is that the effects of a possible native LKR in protostome cell lines could be excluded.
(§2) In order to express the Aplysia putative receptor transiently in CHO-K1, the cDNA was cloned into the mammalian expression vector pcDNA3.1(+). […] Transfection experiments were performed when the cells were grown to 70 to 90% confluence. For the ALKR, in each dish (60-mm diameter), 4 μg of the putative receptor plasmids [in pcDNA3.1(+)] were mixed with 400 μl of Opti-MEM (Gibco, 11058021), followed by the addition of 15 μl of Turbofect (Thermo Fisher Scientific, R0531). […] Thus, 3 μg of the putative receptor plasmids [in pcDNA3.1(+)] and 3 μg of promiscuous Gαq protein ([89]) [in pcDNA3.1(+)] were cotransfected in the above procedure for the Anopheles LKR ([8], [10]). The CHO-K1 cells with the reagents added above were mixed gently and incubated at room temperature for 15 min. The DNA/Turbofect mixture dropwise was then added to the dish, and the cells were incubated at 37 °C in 5% CO2 overnight. The next day, the cells were trypsinized and reseeded in opaque white 96-well half-area (Corning, 3688) or 384-well tissue culture–treated plates (Corning, 3570) at a density of 20,000 cells/well in F-12K and 10% FBS and incubated at 37 °C in 5% CO2 overnight. On the third day, the activation of the receptors was detected by monitoring IP1 accumulation using IP1 detection kit (Cisbio, 62IPAPEB) with a Tecan Spark plate reader. Except for using 0.5 × reagents for the anti-IP1-cryptate and IP1-d2 reagents, all other procedures were performed in accordance with the IP1 detection kit manufacturer’s instructions.

Test [2] concerns the target T2, Anopheles LKR (Anopheles stephensi, UniProt Q694V6).
T2 sequence (Q694V6 1-573): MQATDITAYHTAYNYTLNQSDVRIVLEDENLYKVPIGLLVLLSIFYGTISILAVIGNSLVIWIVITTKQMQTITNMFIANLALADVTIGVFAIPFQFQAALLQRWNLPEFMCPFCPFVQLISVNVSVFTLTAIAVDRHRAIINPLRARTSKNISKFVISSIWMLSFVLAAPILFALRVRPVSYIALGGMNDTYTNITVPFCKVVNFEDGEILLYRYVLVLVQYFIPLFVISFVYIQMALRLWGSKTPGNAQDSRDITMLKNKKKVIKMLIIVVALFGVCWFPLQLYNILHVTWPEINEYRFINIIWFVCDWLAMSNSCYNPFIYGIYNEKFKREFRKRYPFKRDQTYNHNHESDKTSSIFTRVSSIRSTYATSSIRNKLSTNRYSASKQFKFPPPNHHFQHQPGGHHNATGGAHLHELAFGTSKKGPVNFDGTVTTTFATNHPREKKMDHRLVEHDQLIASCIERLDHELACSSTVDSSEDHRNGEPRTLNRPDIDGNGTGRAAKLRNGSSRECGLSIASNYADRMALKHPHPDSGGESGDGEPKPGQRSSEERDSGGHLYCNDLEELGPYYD
The test can be described thus: IP1 accumulation assay, CHO-K1 cells cotransfected with Anopheles LKR and promiscuous Gαq. The note with it: log scale, mean ± SEM, n = 3.
Text: Considering the similarity of leucokinin-like peptides in different species (Fig. 1), we sought to evaluate cross-activity between leucokinin peptides and their receptors in different species. We selected A. stephensi because it is a pest, and this would also provide an opportunity to determine if Aplysia LKs could be potentially used as insecticides ([67]). […] Thus, we cotransfected promiscuous Gαq with the Anopheles receptor, whereas there was no cotransfection of promiscuous Gαq for ALKR.
as §1
as §2, with “Except for using 0.5 × reagents for the anti-IP1-cryptate and IP1-d2 reagents, all other procedures were performed in accordance with the IP1 detection kit manufacturer’s instructions.” left out

The target in test [3] is ALKR L157Q (Aplysia californica, UniProt A0A977Q7Q2, L157Q). The test is described as follows: IP1 accumulation assay, ALKR mutant L157Q in CHO-K1. The note with it: mutant without FLAG tag, n = 3.
Sequence of ALKR L157Q (A0A977Q7Q2 entry or part of it L157Q): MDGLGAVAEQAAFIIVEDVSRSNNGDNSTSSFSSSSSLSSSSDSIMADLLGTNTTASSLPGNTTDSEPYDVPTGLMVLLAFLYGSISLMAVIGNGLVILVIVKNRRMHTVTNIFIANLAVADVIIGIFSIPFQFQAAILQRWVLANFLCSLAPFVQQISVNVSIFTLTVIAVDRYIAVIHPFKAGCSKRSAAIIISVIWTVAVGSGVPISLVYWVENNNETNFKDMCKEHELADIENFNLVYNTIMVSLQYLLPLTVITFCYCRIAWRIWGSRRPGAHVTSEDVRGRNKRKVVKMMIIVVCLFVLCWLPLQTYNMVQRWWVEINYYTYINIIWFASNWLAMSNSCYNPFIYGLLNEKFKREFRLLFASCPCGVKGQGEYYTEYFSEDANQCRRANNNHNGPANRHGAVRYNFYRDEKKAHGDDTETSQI
Text: as §1
(§3) In order to express the Aplysia putative receptor transiently in CHO-K1, the cDNA was cloned into the mammalian expression vector pcDNA3.1(+). […] Transfection experiments were performed when the cells were grown to 70 to 90% confluence. […] On the third day, the activation of the receptors was detected by monitoring IP1 accumulation using IP1 detection kit (Cisbio, 62IPAPEB) with a Tecan Spark plate reader. […]

The target in test [4] is ALKR I329Q (Aplysia californica, UniProt A0A977Q7Q2, I329Q). The test is described as follows: IP1 accumulation assay, ALKR mutant I329Q in CHO-K1.
Sequence of ALKR I329Q (A0A977Q7Q2 entry or part of it I329Q): as the sequence (A0A977Q7Q2 entry or part of it L157Q) above, with Q157L, I329Q counted along it
Text: as §1, §3

Test [5] addresses ALKR Q133A (Aplysia californica, UniProt A0A977Q7Q2, Q133A). The test can be described thus: IP1 accumulation assay, ALKR mutant Q133A in CHO-K1.
Text: as §1, §3

Test [6] deals with ALKR Y213A (Aplysia californica, UniProt A0A977Q7Q2, Y213A). The test can be described thus: IP1 accumulation assay, ALKR mutant Y213A in CHO-K1.
Sequence of ALKR Y213A (A0A977Q7Q2 entry or part of it Y213A): as the sequence (A0A977Q7Q2 entry or part of it L157Q) above, with Q157L, Y213A counted along it
Text: as §1, §3

The target in test [7] is ALKR Q317A (Aplysia californica, UniProt A0A977Q7Q2, Q317A). The test is described as follows: IP1 accumulation assay, ALKR mutant Q317A in CHO-K1.
Sequence of ALKR Q317A (A0A977Q7Q2 entry or part of it Q317A): as the sequence (A0A977Q7Q2 entry or part of it L157Q) above, with Q157L, Q317A counted along it
Text: as §1, §3

The target in test [8] is ALKR Q317N (Aplysia californica, UniProt A0A977Q7Q2, Q317N). The test is described as follows: IP1 accumulation assay, ALKR mutant Q317N in CHO-K1.
Sequence of ALKR Q317N (A0A977Q7Q2 entry or part of it Q317N): as the sequence (A0A977Q7Q2 entry or part of it L157Q) above, with Q157L, Q317N counted along it
Text: as §1, §3

For test [9], the target named is ALKR N314A (Aplysia californica, UniProt A0A977Q7Q2, N314A). The test is described as follows: IP1 accumulation assay, ALKR mutant N314A in CHO-K1.
Sequence of ALKR N314A (A0A977Q7Q2 entry or part of it N314A): as the sequence (A0A977Q7Q2 entry or part of it L157Q) above, with Q157L, N314A counted along it
Text: as §1, §3

Where no end group is shown, it is not given here.

Sequence of ALKR Q133A (A0A977Q7Q2 entry or part of it Q133A): as the sequence (A0A977Q7Q2 entry or part of it L157Q) above, with Q133A, Q157L counted along it

Consider PAFHSWS-NH2 [ALK1], for which the “Activation of ALKR (in words)” value in [1] (IP1 accumulation in CHO-K1 transfected with ALKR) is given as “active”. The 50% effective concentration (EC50) in test [1] (log scale, CHO-K1 transiently transfected with ALKR, no promiscuous Gαq, IP1 detection kit (Cisbio), mean ± SEM, ALK1 n = 13, ALK2 n = 4, others n = 3, inactive: greater than highest concentration tested, read-out: log [EC50] on ALKR (converted)) is 0.0138 µM; in [2], 0.282 µM; in test [3] (EC50 on ALKR L157Q) it was 0.077 µM; in [3] (log [EC50] on ALKR L157Q, log scale, mean ± SEM), 0.0708 µM; in test [4] it was 6.76 µM; in [5], 0.0776 µM. The half-maximal effective concentration (EC50) in test [6] is 0.372 µM; in test [7], 0.0562 µM; in test [8], 0.0251 µM; in [9], 0.11 µM.
